Results on two compounds are retold here after PMC10539361, “Allosteric modulation of the fish taste receptor type 1 (T1R) family by the extracellular chloride ion” (Scientific Reports, 2023).

Assay [1] addresses T1, zfT1R2b/zfT1R3 (Danio rerio, UniProt A0A8M1NDZ5+Q2MHK9).
T1 sequence (A0A8M1NDZ5 18-823): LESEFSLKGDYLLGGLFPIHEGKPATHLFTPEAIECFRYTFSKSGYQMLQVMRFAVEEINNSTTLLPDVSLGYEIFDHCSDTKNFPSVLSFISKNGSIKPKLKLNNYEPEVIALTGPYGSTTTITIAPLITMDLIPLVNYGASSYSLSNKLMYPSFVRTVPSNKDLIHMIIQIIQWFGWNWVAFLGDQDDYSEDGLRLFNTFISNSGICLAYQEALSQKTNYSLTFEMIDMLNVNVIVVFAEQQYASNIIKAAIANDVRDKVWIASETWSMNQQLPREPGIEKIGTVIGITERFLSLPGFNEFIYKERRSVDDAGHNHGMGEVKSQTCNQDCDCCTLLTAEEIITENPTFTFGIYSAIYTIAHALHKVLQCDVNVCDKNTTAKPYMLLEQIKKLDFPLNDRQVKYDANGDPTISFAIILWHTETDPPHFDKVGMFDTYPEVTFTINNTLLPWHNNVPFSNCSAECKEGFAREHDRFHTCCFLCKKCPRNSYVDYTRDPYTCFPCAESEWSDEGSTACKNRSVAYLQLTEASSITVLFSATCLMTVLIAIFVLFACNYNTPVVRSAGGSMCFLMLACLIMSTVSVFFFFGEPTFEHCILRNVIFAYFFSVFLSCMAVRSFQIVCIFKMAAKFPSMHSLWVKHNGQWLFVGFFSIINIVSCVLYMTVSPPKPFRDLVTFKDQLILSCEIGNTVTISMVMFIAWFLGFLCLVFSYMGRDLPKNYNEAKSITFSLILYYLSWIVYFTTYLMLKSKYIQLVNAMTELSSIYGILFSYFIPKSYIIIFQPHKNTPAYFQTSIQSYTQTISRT
T1 sequence (Q2MHK9 25-850): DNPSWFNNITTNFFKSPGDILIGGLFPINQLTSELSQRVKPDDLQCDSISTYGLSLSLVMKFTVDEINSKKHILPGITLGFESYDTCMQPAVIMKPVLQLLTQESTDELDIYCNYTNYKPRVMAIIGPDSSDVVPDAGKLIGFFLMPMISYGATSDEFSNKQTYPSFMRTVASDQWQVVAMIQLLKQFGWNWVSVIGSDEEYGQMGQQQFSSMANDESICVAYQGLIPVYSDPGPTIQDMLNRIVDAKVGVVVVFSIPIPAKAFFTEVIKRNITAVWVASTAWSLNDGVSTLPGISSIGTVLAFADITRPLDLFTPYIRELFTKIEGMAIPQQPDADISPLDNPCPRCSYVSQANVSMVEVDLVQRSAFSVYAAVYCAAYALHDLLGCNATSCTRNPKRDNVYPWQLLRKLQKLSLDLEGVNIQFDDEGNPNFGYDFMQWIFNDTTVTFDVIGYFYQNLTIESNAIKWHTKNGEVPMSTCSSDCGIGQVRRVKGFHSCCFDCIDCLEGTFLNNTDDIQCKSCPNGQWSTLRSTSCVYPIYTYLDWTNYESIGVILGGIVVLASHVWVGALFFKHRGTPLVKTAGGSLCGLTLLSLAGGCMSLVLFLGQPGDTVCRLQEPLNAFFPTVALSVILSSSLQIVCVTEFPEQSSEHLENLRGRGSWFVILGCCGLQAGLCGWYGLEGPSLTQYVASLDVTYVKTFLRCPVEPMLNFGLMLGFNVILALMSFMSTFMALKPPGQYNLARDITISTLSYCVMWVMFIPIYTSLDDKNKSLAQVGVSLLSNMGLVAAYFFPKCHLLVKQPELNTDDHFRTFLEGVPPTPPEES
As to the kind of experiment: Effect of anions, cations and osmotic pressure on cellular responses, cells in 10 mM Cl- buffer, zfT1R2b/zfT1R3. The format is cell-based, zebrafish. The following applies: coapplied with 2 mM L-Ala, increasing salt concentration. How it is done:
Cells were seeded in 96-well plates coated with ε-poly-L-lysine at approximately 70,000 cells per well. […] Fluorescence changes were monitored at 2 s intervals, as described above. […] Three independent experiments were conducted for each receptor, and representative results are shown as the mean ± SEM (n = 3 replicates). Statistical tests were conducted using KyPlot version 6.0 (KyensLab Inc., Tokyo, Japan). Statistical significance was set at p < 0.05.

For the next assay, the target named is mfT1R2b/mfT1R3 T105E (Oryzias latipes, UniProt Q2MHK2+Q2MHK4, Q2MHK2:T105E). Briefly: cell-based. As to conditions: EC50, [Cl-]o=10 mM; unit inferred.
Chain of mfT1R2b/mfT1R3 T105E (Q2MHK2 entry or part of it T105E): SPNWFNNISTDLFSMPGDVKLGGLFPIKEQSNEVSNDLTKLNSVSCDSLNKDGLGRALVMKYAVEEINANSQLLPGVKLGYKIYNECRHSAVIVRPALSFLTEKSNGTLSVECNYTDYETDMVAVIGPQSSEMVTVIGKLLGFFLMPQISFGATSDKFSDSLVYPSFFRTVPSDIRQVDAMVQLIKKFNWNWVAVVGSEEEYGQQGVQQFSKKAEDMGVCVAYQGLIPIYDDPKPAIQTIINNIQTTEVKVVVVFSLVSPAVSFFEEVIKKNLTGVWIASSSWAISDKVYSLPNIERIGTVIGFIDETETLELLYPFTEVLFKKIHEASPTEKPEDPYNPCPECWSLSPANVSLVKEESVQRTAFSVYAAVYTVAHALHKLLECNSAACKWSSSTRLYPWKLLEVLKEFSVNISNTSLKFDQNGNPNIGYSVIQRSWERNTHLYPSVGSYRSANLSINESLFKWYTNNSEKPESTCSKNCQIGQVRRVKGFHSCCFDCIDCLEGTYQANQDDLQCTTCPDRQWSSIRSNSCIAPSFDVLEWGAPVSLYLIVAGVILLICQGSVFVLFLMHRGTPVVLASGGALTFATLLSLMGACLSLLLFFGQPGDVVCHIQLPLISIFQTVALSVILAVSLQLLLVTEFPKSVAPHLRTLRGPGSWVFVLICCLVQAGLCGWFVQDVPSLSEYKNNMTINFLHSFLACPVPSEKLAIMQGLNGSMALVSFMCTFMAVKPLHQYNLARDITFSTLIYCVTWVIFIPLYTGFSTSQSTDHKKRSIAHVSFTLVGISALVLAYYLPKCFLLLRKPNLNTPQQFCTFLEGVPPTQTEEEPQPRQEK
Chain of mfT1R2b/mfT1R3 T105E (Q2MHK4 entry or part of it): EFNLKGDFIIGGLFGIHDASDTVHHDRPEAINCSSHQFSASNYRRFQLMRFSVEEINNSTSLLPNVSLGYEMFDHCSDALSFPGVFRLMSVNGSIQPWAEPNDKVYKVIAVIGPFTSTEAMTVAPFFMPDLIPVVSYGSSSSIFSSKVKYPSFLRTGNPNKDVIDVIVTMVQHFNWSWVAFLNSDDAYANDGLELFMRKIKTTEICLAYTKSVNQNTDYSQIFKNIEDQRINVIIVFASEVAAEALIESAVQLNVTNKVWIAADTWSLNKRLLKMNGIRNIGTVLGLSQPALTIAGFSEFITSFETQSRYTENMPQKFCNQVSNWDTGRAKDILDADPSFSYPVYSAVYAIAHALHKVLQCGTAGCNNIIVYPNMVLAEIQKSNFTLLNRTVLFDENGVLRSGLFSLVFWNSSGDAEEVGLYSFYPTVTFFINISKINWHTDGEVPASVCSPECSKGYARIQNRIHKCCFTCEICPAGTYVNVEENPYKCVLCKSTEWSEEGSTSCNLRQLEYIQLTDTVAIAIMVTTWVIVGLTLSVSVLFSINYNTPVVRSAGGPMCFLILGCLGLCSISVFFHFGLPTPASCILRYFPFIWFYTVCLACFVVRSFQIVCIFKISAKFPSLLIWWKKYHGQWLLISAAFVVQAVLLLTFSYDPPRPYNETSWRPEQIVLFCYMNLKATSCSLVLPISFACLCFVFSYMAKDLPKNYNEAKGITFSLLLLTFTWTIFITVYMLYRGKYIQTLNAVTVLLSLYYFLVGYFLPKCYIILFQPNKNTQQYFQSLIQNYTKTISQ
Assay [2] has as its target T1, zfT1R2b/zfT1R3. Briefly: cell-based.
Method: (§1) The buffers with lower Cl^− were prepared by progressively replacing NaCl, KCl, CaCl2 and MgCl2 in the buffer with gluconate equivalents[20]. The pH was adjusted to 7.4 with NaOH. Ligands were diluted with the assay buffers at the desired concentrations.
Measurements of the responses of the cells by cell-based assay based on the intracellular Ca^2+ mobilization were carried out as described previously with some modifications[20],[34],[46],[47]. […] The cells were seeded in 96-well plates (clear-bottomed CellBIND surface plate, Corning, Glendale, AZ, USA) coated with ε-poly-L-lysine (Cosmo Bio, Tokyo, Japan) at approximately 70,000 cells per well. After 20 h, the medium was removed and replaced with high Cl^− buffer. After 3 h 30 min incubation at 27 °C, cells were loaded with 5 µM calcium-indicator dye Fluo-8 AM (AAT Bioquest, Sunnyvale, CA, USA) diluted in high Cl^− buffer. After incubation for 30 min at 27 °C, the cells were washed with buffers containing appropriate concentrations of Cl^−. The cellular assay was initiated after 3–5 min of resting and was completed within 5 min. The measurements were made using FlexStation 3 (Molecular Devices, Sunnyvale, CA, USA) at 27 °C. Fluorescence changes (i.e., excitation at 485 nm and emission at 525 nm with a cutoff at 515 nm) were monitored at 2 s intervals. A 100-µL aliquot of assay buffer supplemented with 2 × ligands was added at 20 s, and scanning was continued for an additional 40 s. The response of each well was determined as ∆RFU (delta relative fluorescent units), which was calculated as (maximum fluorescent value)—(minimum fluorescent value). […] Such normalized data from more than three independent experiments are reported as the mean ± standard error of the mean (SEM). Dose‒response fitting curves were calculated by Prism 9 (GraphPad Software, San Diego, CA) using nonlinear regression (log(agonist) vs. response—variable slope), based on the integrated data from the several independent experiments.

Method for mfT1R2b/mfT1R3 T105E: as §1
Measurements of the responses of the cells by cell-based assay based on the intracellular Ca^2+ mobilization were carried out as described previously with some modifications[20],[34],[46],[47]. Cell lines stably expressing T1R2, T1R3 and chimeric G-protein α-subunit, G16gust44[48], were constructed using the Flp-In pcDNA5/FRT complete system (Thermo Fisher Scientific, Waltham, MA, USA) described in our previous studies[34],[46]. […] Fluorescence changes (i.e., excitation at 485 nm and emission at 525 nm with a cutoff at 515 nm) were monitored at 2 s intervals. […] The response of each well was determined as ∆RFU (delta relative fluorescent units), which was calculated as (maximum fluorescent value)—(minimum fluorescent value). […] Dose‒response fitting curves were calculated by Prism 9 (GraphPad Software, San Diego, CA) using nonlinear regression (log(agonist) vs. response—variable slope), based on the integrated data from the several independent experiments.

As to `[Cl-].[Na+]` [NaCl], on zfT1R2b/zfT1R3 [1], the “response to fixed concentration of L-Ala on coapplication” value is reported as “decreased”. What is called EC50 is the concentration at which the effect is half-maximal. For `C[C@H](N)C(=O)O` [L-Ala, L-alanine], the values for the EC50 at mfT1R2b/mfT1R3 T105E and at zfT1R2b/zfT1R3 [2] were 11.4 mM and 2.9 mM, respectively.
